Laboratory results reported in patent publication US12187723B2 (BRISTOL-MYERS SQUIBB COMPANY, priority 2019, dated 2025).
Counter-ions that a name gives are not always drawn.

Biological target: T1, human TLR7 (Homo sapiens, UniProt Q9NYK1)
T1 construct: host or cells: HEK-Blue cells
T1 sequence (Q9NYK1 27-1049): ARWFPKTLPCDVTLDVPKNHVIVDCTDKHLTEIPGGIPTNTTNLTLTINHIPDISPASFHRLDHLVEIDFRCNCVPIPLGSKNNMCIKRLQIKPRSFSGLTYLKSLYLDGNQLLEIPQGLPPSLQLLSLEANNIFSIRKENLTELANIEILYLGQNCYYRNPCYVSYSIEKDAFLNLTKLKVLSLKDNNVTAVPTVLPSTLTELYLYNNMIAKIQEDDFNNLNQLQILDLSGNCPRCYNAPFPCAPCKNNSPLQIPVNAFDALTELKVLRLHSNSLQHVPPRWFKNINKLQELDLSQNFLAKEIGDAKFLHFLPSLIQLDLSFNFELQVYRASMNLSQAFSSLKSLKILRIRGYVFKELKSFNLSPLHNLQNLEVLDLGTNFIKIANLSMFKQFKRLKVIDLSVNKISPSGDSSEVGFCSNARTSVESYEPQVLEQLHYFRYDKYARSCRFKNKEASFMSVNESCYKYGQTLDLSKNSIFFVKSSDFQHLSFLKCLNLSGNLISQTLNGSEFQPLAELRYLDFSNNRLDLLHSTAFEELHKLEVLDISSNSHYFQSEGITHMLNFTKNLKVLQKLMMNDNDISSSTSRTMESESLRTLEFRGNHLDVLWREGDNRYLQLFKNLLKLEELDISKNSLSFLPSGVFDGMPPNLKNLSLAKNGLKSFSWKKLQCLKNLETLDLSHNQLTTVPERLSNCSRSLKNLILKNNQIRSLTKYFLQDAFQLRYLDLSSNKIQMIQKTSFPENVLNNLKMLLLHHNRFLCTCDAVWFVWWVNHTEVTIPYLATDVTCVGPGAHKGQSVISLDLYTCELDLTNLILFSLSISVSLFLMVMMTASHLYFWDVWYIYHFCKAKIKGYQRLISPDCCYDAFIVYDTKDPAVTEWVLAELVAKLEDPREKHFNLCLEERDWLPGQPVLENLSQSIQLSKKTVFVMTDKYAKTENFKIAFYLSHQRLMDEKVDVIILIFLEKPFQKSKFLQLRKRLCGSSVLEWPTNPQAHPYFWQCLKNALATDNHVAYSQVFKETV
Assay: TLR7 inhibition reporter assay (HEK-Blue SEAP)
Format: cell-based
Conditions: HEK-Blue cells overexpressing human TLR7, gardiquimod 7.5 μM, 22 hour incubation
Summary of the method: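 Cells (15000/well for TLR7, 20,000 for TLR8) were treated with compounds over 0.05 nM-50 μM final. After 22 h at 37° C, 5% CO2, SEAP was measured with HEK-Blue Detection reagent; percent inhibition was taken as reduction of agonist-plus-DMSO signal relative to a known inhibitor.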

| IC50 | Structure (SMILES) |
| --- | --- |
| 0.0124 µM | Cc1c(-c2cc3[nH]c(=O)n(C4CCC(N5CC6(COC6)C5)CC4)c3cc2C(C)C)cn2ncnc2c1C (single isomer, unassigned) [Example 281, 1-(4-(2-oxa-6-azaspiro[3.3]heptan-6-yl)cyclohexyl)-5-(7,8-dimethyl-[1,2,4]triazolo[1,5-a]pyridin-6-yl)-6-isopropyl-1,3-dihydro-2H-benzo[d]imidazol-2-one] |
| 0.0101 µM | Cc1c(-c2cc3[nH]c(=O)n(C4CCC(N5CCC6(CC5)COC6)CC4)c3cc2C(C)C)cn2ncnc2c1C (single isomer, unassigned) [Example 282, 1-(4-(2-oxa-7-azaspiro[3.5]nonan-7-yl)cyclohexyl)-5-(7,8-dimethyl-[1,2,4]triazolo[1,5-a]pyridin-6-yl)-6-isopropyl-1,3-dihydro-2H-benzo[d]imidazol-2-one] |
| 0.00182 µM | Cc1c(-c2cc3[nH]c(=O)n(C4CCC(N5CCC6(CC5)COC6)CC4)c3cc2C(C)C)cn2ncnc2c1C (single isomer, unassigned) [Example 283, 1-(4-(2-oxa-7-azaspiro[3.5]nonan-7-yl)cyclohexyl)-5-(7,8-dimethyl-[1,2,4]triazolo[1,5-a]pyridin-6-yl)-6-isopropyl-1,3-dihydro-2H-benzo[d]imidazol-2-one] |
| 0.00509 µM | COc1cc(-c2cc3[nH]c(=O)n(C4CCC(N5CCC(S(C)(=O)=O)C5)CC4)c3cc2C(C)C)cn2ncnc12 (single isomer, unassigned) [Example 288, 6-isopropyl-5-(8-methoxy-[1,2,4]triazolo[1,5-a]pyridin-6-yl)-1-(4-(3-(methylsulfonyl)pyrrolidin-1-yl)cyclohexyl)-1,3-dihydro-2H-benzo[d]imidazol-2-one] |
| 0.0119 µM | COc1cc(-c2cc3[nH]c(=O)n(C4CCC(N5CCC(S(C)(=O)=O)C5)CC4)c3cc2C(C)C)cn2ncnc12 (single isomer, unassigned) [Example 289, 6-isopropyl-5-(8-methoxy-[1,2,4]triazolo[1,5-a]pyridin-6-yl)-1-(4-(3-(methylsulfonyl)pyrrolidin-1-yl)cyclohexyl)-1,3-dihydro-2H-benzo[d]imidazol-2-one] |
| 0.00138 µM | COC[C@@H]1CCN(C2CCC(n3c(=O)[nH]c4cc(-c5cc(OC)c6ncnn6c5)c(C(C)C)cc43)CC2)C1 (single isomer, unassigned) [Example 290] |
| 0.00171 µM | COC[C@@H]1CCN(C2CCC(n3c(=O)[nH]c4cc(-c5cc(OC)c6ncnn6c5)c(C(C)C)cc43)CC2)C1 (single isomer, unassigned) [Example 291] |
| 0.00221 µM | COc1cc(-c2cc3[nH]c(=O)n(C4CCC(N5C[C@@H](F)[C@@H](F)C5)CC4)c3cc2C(C)C)cn2ncnc12 (single isomer, unassigned) [Example 292] |
| 0.0109 µM | COc1cc(-c2cc3[nH]c(=O)n(C4CCC(N5C[C@@H](F)[C@@H](F)C5)CC4)c3cc2C(C)C)cn2ncnc12 (single isomer, unassigned) [Example 293] |
| 0.0012 µM | COc1cc(-c2cc3[nH]c(=O)n(C4CCC(N5CCC(F)(F)C5)CC4)c3cc2C(C)C)cn2ncnc12 (single isomer, unassigned) [Example 294, 1-(4-(3,3-difluoropyrrolidin-1-yl)cyclohexyl)-6-isopropyl-5-(8-methoxy-[1,2,4]triazolo[1,5-a]pyridin-6-yl)-1,3-dihydro-2H-benzo[d]imidazol-2-one] |
| 0.0418 µM | COc1cc(-c2cc3[nH]c(=O)n(C4CCC(N5CCC(F)(F)C5)CC4)c3cc2C(C)C)cn2ncnc12 (single isomer, unassigned) [Example 295, 1-(4-(3,3-difluoropyrrolidin-1-yl)cyclohexyl)-6-isopropyl-5-(8-methoxy-[1,2,4]triazolo[1,5-a]pyridin-6-yl)-1,3-dihydro-2H-benzo[d]imidazol-2-one] |
| 0.0314 µM | COc1cc(-c2cc3[nH]c(=O)n(C4CCC(N5CC(F)(F)C5)CC4)c3cc2C(C)C)cn2ncnc12 (single isomer, unassigned) [Example 296] |
| 0.0371 µM | COc1cc(-c2cc3[nH]c(=O)n(C4CCC(N5CC(F)(F)C5)CC4)c3cc2C(C)C)cn2ncnc12 (single isomer, unassigned) [Example 297] |
| 0.0165 µM | Cc1c(-c2cc3[nH]c(=O)n(C4CCC(N5CC6(COC6)C5)CC4)c3cc2C(C)C)cn2ncnc2c1C (single isomer, unassigned) [Example 298] |
| 0.366 µM | COc1cc(-c2cc3[nH]c(=O)n(C4CCNCC4)c3cc2C)cn2ncnc12 [1 E, 5-(8-methoxy-[1,2,4]triazolo[1,5-a]pyridin-6-yl)-6-methyl-1-(piperidin-4-yl)-1H-benzo[d]imidazol-2(3H)-one, TFA] |
| 0.344 µM | Cc1cc2c(cc1-c1cc(C)c3ncnn3c1)[nH]c(=O)n2C1CCNCC1 [1 EA, 6-methyl-5-(8-methyl-[1,2,4]triazolo[1,5-a]pyridin-6-yl)-1-(piperidin-4-yl)-1,3-dihydro-2H-benzo[d]imidazol-2-one] |
| 1.16 µM | Cc1cc(-c2ccc3c(c2)[nH]c(=O)n3C2CCNCC2)cn2ncnc12 [1 EB, 5-(8-methyl-[1,2,4]triazolo[1,5-a]pyridin-6-yl)-1-(piperidin-4-yl)-1,3-dihydro-2H-benzo[d]imidazol-2-one] |
| 0.105 µM | Cc1cc2c(cc1-c1cc(C)c3ncnn3c1)[nH]c(=O)n2C1CCCNC1 (stereo not shown) [1 EC, 6-methyl-5-(8-methyl-[1,2,4]triazolo[1,5-a]pyridin-6-yl)-1-(piperidin-3-yl)-1,3-dihydro-2H-benzo[d]imidazol-2-one] |
| 0.0181 µM | Cc1cc2c(cc1-c1cc(C)c3ncnn3c1)[nH]c(=O)n2[C@@H]1CCCNC1 [1 ED, (R)-6-methyl-5-(8-methyl-[1,2,4]triazolo[1,5-a]pyridin-6-yl)-1-(piperidin-3-yl)-1,3-dihydro-2H-benzo[d]imidazol-2-one] |
| 0.0193 µM | Cc1cc2c(cc1-c1cc(C)c3ncnn3c1)[nH]c(=O)n2[C@H]1CC[C@@H](N)CC1 [1 EE] |
| 0.0407 µM | Cc1cc2c(cc1-c1cc(C)c3ncnn3c1)[nH]c(=O)n2[C@H]1CC[C@H](N)CC1 [1 EF, 1-((1r,4r)-4-aminocyclohexyl)-6-methyl-5-(8-methyl-[1,2,4]triazolo[1,5-a]pyridin-6-yl)-1,3-dihydro-2H-benzo[d]imidazol-2-one] |
| 0.0532 µM | COc1cc(-c2cc3[nH]c(=O)n([C@H]4CC[C@@H](N)CC4)c3cc2C)cn2ncnc12 [1 EG, 1-((1s,4s)-4-aminocyclohexyl)-5-(8-methoxy-[1,2,4]triazolo[1,5-a]pyridin-6-yl)-6-methyl-1,3-dihydro-2H-benzo[d]imidazol-2-one] |
| 0.043 µM | COc1cc(-c2cc3[nH]c(=O)n([C@@H]4CCCNC4)c3cc2C)cn2ncnc12 [1 EH, (R)-5-(8-methoxy-[1,2,4]triazolo[1,5-a]pyridin-6-yl)-6-methyl-1-(piperidin-3-yl)-1,3-dihydro-2H-benzo[d]imidazol-2-one] |
| > 3.13 µM | COc1cc(-c2ccc3c(c2)[nH]c(=O)n3C2CCNCC2)cn2ncnc12 [1 EI, 5-(8-methoxy-[1,2,4]triazolo[1,5-a]pyridin-6-yl)-1-(piperidin-4-yl)-1,3-dihydro-2H-benzo[d]imidazol-2-one] |
| 0.0505 µM | Cc1cc(-c2cc(C)c3ncnn3c2)cc2[nH]c(=O)n(C3CCNCC3)c12 [106 F, 7-methyl-5-(8-methyl-[1,2,4]triazolo[1,5-a]pyridin-6-yl)-1-(piperidin-4-yl)-1,3-dihydro-2H-benzo[d]imidazol-2-one] |
| 0.0282 µM | COc1cc(-c2cc3[nH]c(=O)n([C@@H]4CCCNC4)c3cc2C(F)(F)F)cn2ncnc12 [110 F, (R)-5-(8-methoxy-[1,2,4]triazolo[1,5-a]pyridin-6-yl)-1-(piperidin-3-yl)-6-(trifluoromethyl)-1,3-dihydro-2H-benzo[d]imidazol-2-one] |
| 0.00547 µM | CCc1cc2c(cc1-c1cc(OC)c3ncnn3c1)[nH]c(=O)n2[C@@H]1CCCNC1 [119 FB, (R)-6-ethyl-5-(8-methoxy-[1,2,4]triazolo[1,5-a]pyridin-6-yl)-1-(piperidin-3-yl)-1,3-dihydro-2H-benzo[d]imidazol-2-one] |
| 0.00326 µM | Cc1c(-c2cc3[nH]c(=O)n([C@@H]4CCCNC4)c3cc2C(C)C)cn2ncnc2c1C [119 FC, (R)-5-(7,8-dimethyl-[1,2,4]triazolo[1,5-a]pyridin-6-yl)-6-isopropyl-1-(piperidin-3-yl)-1,3-dihydro-2H-benzo[d]imidazol-2-one] |
